B1: Colipase: colipase polypeptide added to the medium (0.25 mcg/mL) as cofactor of pancreatic lipases (protein, UniProt P04118 23-112, looked up)
Colipase: GIIINLENGELCMNSAQCKSNCCQHSSALGLARCTSMASENSECSVKTLYGIYYKCPCERGLTCEGDKTIVGSITNTNFGICHDAGRSKQ

Key:
adipocytes = assay: Isoproterenol induced lipolysis in adipocytes (glycerol release); format: cell-based; details: Iso 10 μM; inhibitor 50 μM
Experimental: (§1) Adipocytes were stimulated by isoproterenol (Iso 10 μM) or co-cultured with pancreatic acini. The adipose triglyceride lipase (ATGL) inhibitor atglistatin or the pancreatic lipase inhibitor orlistat (50 μM each) was added in some conditions.
Glycerol release was measured as a marker of lipolysis in adipocytes. Isoproterenol induced lipolysis in adipocytes.

Rat parotid acini = assay: LDH leakage from rat parotid acini exposed to glyceryl trilinoelate, human PTL and human colipase; format: cell-based; details: glyceryl trilinoelate 300 micromolar + human PTL 1 micrograms/mL + human colipase 0.25 micrograms/mL; orlistat 50 micromolar or serum 1:4 dilution; over 4 hours
Experimental: Cells exposed to glyceryl trilinoelate, PTL, and colipase were treated at a 1:4 dilution with either orlistat (50 micromolar), serum from mice immunized against human colipase, or serum from unimmunized mice. […] (LDH) leakage into the medium was measured over 4 hours.

[1] = test system: Differentiated 3T3-LI adipocytes; assay: LDH leakage from PTL-transfected 3T3-LI adipocytes with colipase; format: cell-based; details: over 8 hours
Experimental: (§2) Differentiated 3T3-LI adipocytes with lipid droplets were transfected with adenovirus expressing pancreatic triglyceride lipase (PTL) to induce lactate dehydrogenase (LDH) leakage or left as unstimulated controls. The medium was replaced with serum free medium alone or with colipase (0.25 mcg/mL). In some wells the lipase inhibitor orlistat (20 micromolar) was added every 2 hours.
LDH leakage into the medium was measured as a marker of cell injury. […] Colipase increased this to 30-40% LDH leakage compared to controls. […] Glycerol release was measure as a marker of lipolysis. […] Colipase increased glycerol release compared to controls. Glycerol release was prevented by the lipase inhibitor orlistat (FIG. 3B).

[2] = test system: Differentiated 3T3-LI adipocytes; assay: Glycerol release (lipolysis) from PTL-transfected 3T3-LI adipocytes with colipase; format: cell-based; details: PTL + colipase 0.25 mcg/mL; orlistat 20 micromolar every 2 hours; over 8 hours
Experimental: as §2, with “hours. LDH leakage into the medium was measured as a marker of cell injury. […] Colipase increased this to 30-40% LDH leakage compared to controls. […] Glycerol release was measure as a marker of lipolysis. […] Colipase increased glycerol release compared to controls. Glycerol release was prevented by the lipase inhibitor orlistat (FIG. 3B).” for “hours.”

[3] = test system: Differentiated 3T3-LI adipocytes; assay: MCP-1 release from PTL-transfected 3T3-LI adipocytes with colipase (luminex); format: cell-based; details: PTL + colipase 0.25 mcg/mL; orlistat 20 micromolar every 2 hours
Experimental: (§3) Differentiated 3T3-LI adipocytes with lipid droplets were transfected with adenovirus expressing pancreatic triglyceride lipase (PTL) or left as unstimulated controls. The medium was replaced with serum free medium alone or with colipase (0.25 mcg/mL). In some wells the lipase inhibitor orlistat (20 micromolar) was added every 2 hours. Cytokine release was measured as a marker of inflammatory response. MCP-1 release into the medium was measured by luminex. There was a significant release of MCP-1 only when both colipase and PTL were present. This release was prevented by orlistat (FIG. 6B).

[4] = test system: rats with lethal pancreatitis; assay: Caerulein plus glyceryl trioleate lethal pancreatitis in rats; format: in vivo, rat; details: orlistat 50 mg/kg
Experimental: Pancreatitis was induced in rats and flow cytometry was performed on white blood cells (WBCs) from peripheral blood.
Rats (100 gm rats) were either given caerulein (20 mcg/kg BID (twice a day) intraperitoneally) to induce pancreatitis or left untreated as control animals. Some rats were also given glyceryl trioleate (3 ml intraperitoneally) to induce lactate dehydrogenase (LDH) leakage. Some rats also received the lipase inhibitor orlistat (50 mg/kg). Blood was collected from rats 2 days after induction of caerulein pancreatitis with or without administration of caerulein, glyceryl trioleate, and/or orlistat.

pancreatic acini = assay: Adipocyte induced necrosis in pancreatic acini (co-culture); format: cell-based; details: inhibitor 50 μM
Experimental: as §1
Co-culture of adipocytes and pancreatic acini induced necrosis in the acini.

[5] = test system: Differentiated 3T3-LI adipocytes; assay: IL-6 release from PTL-transfected 3T3-LI adipocytes with colipase (luminex); format: cell-based; details: PTL + colipase 0.25 mcg/mL; orlistat 20 micromolar every 2 hours
Experimental: as §3, with “IL-6” for “MCP-1”, “6A).” for “6B).”

Molecule	Isoproterenol induced lipolysis (glycerol release) (adipocytes)	LDH leakage into the medium (Rat parotid acini)	LDH leakage into the medium (marker of cell injury) ([1]; PTL + colipase 0.25 mcg/mL, orlistat 20 micromolar added every 2 hours)	Glycerol release (marker of lipolysis) [2]	MCP-1 release into the medium [3]	Survival ([4]; caerulein + glyceryl trioleate (97% mortality by day 3 without treatment))	Apoptosis of circulating cells (annexin V positive CD11b) ([4]; caerulein + glyceryl trioleate, blood 2 days after induction)	Adipocyte induced necrosis in pancreatic acini as measured by glycerol release (pancreatic acini)	Adipocyte induced necrosis in pancreatic acini as measured by propidium iodide uptake (pancreatic acini)	IL-6 release into the medium [5]	LDH leakage compared to controls ([1]; PTL-transfected adipocytes, colipase 0.25 mcg/mL)
CN(C)C(=O)Nc1cccc(-c2ccc(N(C)C)cc2)c1 [atglistatin]	inhibited	–	–	–	–	–	–	–	–	–	–
CCCCCCCCCCC[C@@H](C[C@@H]1OC(=O)[C@H]1CCCCCC)OC(=O)[C@H](CC(C)C)NC=O [orlistat]	but not orlistat, inhibited	significantly reduced	completely prevented	prevented	prevented	survive	prevented	inhibited	inhibited	prevented	–
B1	–	–	–	–	–	–	–	–	–	–	30-40%
